The results in this text go back to patent US10179770B2, “Quinolines derivatives as novel anticancer agents” (GENOSCIENCE PHARMA, priority 2013, dated 2019).

The subject of one assay is HT29. Put plainly: CellTiter-Glo cell viability assay (example 57). Type of assay: cell-based. Conditions: Homo sapiens, HT-29; HT29 (Colon); Cell Titer-Glo; 72 h. In general terms: Cellular ATP, detected with luciferase, serves as a proxy for viable cell number.
The subject of the next assay is U87-MG. Nature of the assay: CellTiter 96 Aqueous One Solution (MTS) cell proliferation assay. Type of assay: cell-based. Conditions: Homo sapiens, U-87 MG; U87-MG (Glioma); Cell Titer 96 Aqueous One Solution; 72 h; mean of seven independent triplicate assays. The method, then:
The human glioblastoma cell line U87-MG was cultured in Minimum Essential Medium (Life Invitrogen, 31095029) supplemented with 10% fetal bovine serum (GIBCO, 10500-056) and 1 % penicillin-streptomycin (GIBCO, 15140-122). Flasks and plated used for the cell culture were coated with 25 μg/mL poly-D-lysine (Sigma, P7280).
Cell outgrowth was measured using a tetrazolium compound (3-[4,5-dimethylthiazol-2-yl]-5-[3-carboxymethoxyphenyl]-2-[4-sulfophenyl]-2H tetrazolium, inner salt [MTS]) from the CellTiter 96® Aqueous One Solution Cell Proliferation Assay (Promega, Ref G3580) and according to the manufacturer procedure.
5000 cells were plated onto 96-well plates in 100 μL of media per well and were allowed to grow overnight before the assay. Compounds were added at different concentrations to each well, and cell cultures were incubated for 72 h. Control compound was the diluent used for compound resuspension (H2O). After addition of 20 μL of CellTiter 96® Aqueous One Solution, absorbance at 492 nm was measured using a microplate reader Sunrise (Tecan). EC50 values were determined as the dose of compound required to reduce […] values to 50% of the signal obtained for untreated cell cultures. […] The experimental data are analyzed using a computer program, Graphpad Prism (GraphPad Software, Inc. La Jolla, Calif.).

The next assay has as its system BxPC-3. Nature of the assay: Cell viability assay, pancreatic cancer cell lines. It counts as cell-based. Conditions: Homo sapiens; BxPC-3 (Pancreas); 48 h. On the procedure: (§1) MiaPaCa-2, Panc-1 cells were grown in Dulbecco's modified eagle's medium (DMEM) (Gibco) supplemented with 10% fetal bovine serum (FBS), while BxPC-3, Capan-1, Capan-2 cells were grown in Roswell Park Memorial Institute 1640 (RPMI 1640) (Gibco) supplemented with 10% FBS. Gemcitabine (Gemzar) was purchased from Lilly France S.A.S (Suresnes, France). (3-(4,5-dimethylthiazol-2-yl)-2,5diphenyltetrazolium bromide, MTT) was purchased from Sigma-Aldrich.
(§2) BxPC-3, MiaPaCa-2, Panc-1 cells were seeded into a 96-well plate at 10,000 10,000 15,000 cells per well respectively, while Capan-1 and Capan-2 cells at 20,000 cells per well and allowed to adhere overnight. Then the culture medium was removed and replaced with fresh media alone as control or containing various concentrations of different compounds. In dose-dependent assay, the cells were treated with compound XIX-3 at the concentration varying from 0.1 μM to 100 μM while the cells being cultured by fresh media alone were used as control. After 48 h treatment, the number of remained viable cells was determined by (3-(4,5-dimethylthiazol-2-yl)-2,5diphenyltetrazolium bromide, MTT) colorimetric assay (see Sigma Aldrich protocol and Riss T. L. et al. Cell Viability Assays in Assay Guidance Manual 2013 ppl.). All experiments were done in duplicate and repeated two independent times.

Another assay deals with Capan-1. Nature of the assay: Cell viability assay, pancreatic cancer cell lines. Particulars: Homo sapiens; Capan-1 (Pancreas); 48 h. It counts as cell-based. The method, then: as §1, §2
Another assay has as its system MIA PaCa-2. Put plainly: Cell viability assay, pancreatic cancer cell lines. Conditions: Homo sapiens; MIA PaCa-2 (Pancreas); 48 h. Type of assay: cell-based. On the procedure: as §1, §2
The test system of another assay is Capan-2. Put plainly: Cell viability assay, pancreatic cancer cell lines. Conditions: Homo sapiens; Capan-2 (Pancreas); 48 h. It counts as cell-based. On the procedure: as §1, §2
In a further assay the test system is Panc-1. Nature of the assay: Cell viability assay, pancreatic cancer cell lines. Particulars: Homo sapiens; Panc-1 (Pancreas); 48 h. It counts as cell-based. The method, then: as §1, §2
Another assay concerns Kasumi-1. Put plainly: CellTiter-Glo cell viability assay (example 57). Type of assay: cell-based. Conditions: Homo sapiens; Kasumi-1 (Leukemia); Cell Titer-Glo; 72 h. On the procedure: (§3) The human breast cancer cell line SkBr3 and the human metastatic prostate carcinoma cell line LnCAP were cultured in Dulbecco's modified Eagle's medium (DMEM) supplemented with 10% fetal bovine serum (FBS) and 0.1% sodium pyruvate. The human myelocytic cell line U937 and NB4 were maintained in RPMI medium 1640 1× (Gibco 21875-034) supplemented with 10 % Fetal Bovine Serum (FBS, Eurobio S39130-0808) Kasumi and SKM-1 were maintained in RPMI medium 1640 1× (Gibco 21875-034) supplemented with 20 % Fetal Bovine Serum (FBS, Eurobio S39130-0808), HL60 was maintained in Iscove's modified Dulbecco's medium 1× (IMDM, Gibco 21890) supplemented with 20% Fetal Bovine Serum (FBS, Eurobio S39130-0808), cell line was maintained in MEM alpha medium (Gibco 22561-021) supplemented with 10% FBS at 37° C. with 5% CO2. Cell outgrowth was measured using the CellTiter-Glo luminescent cell viability assay as described by the manufacturer (Promega, Ref G7571 Madison, Wis., USA) using a FLUOstar optima luminometer (BMG Labtech, Ortenberg, Germany).
(§4) Briefly, for adherent cells, 10^4 cells were plated onto 96-well plates (white with clear bottom (3610, Corning Costar) in 100 μL of media per well and were allowed to grow overnight before the assay. For cells growing in suspension, 10^4 cells were plated onto 96-well plates immediately before the assay. […] Vehicle (DMSO) was used as a control, and all compounds were tested in a constant percentage of DMSO (1%). After addition of 50 μL of CellTiter GLO, luminescence was measured using a Centro luminometer (Berthold). EC50 values were determined as the dose of compound required to reduce luminescent values to 50% of the signal obtained for untreated cell cultures. All experiments were done in duplicate and repeated two independent times.

For the next assay, the system named is NB4. Nature of the assay: CellTiter-Glo cell viability assay (example 57). It counts as cell-based. Conditions: Homo sapiens, NB-4; NB4 (Leukemia); Cell Titer-Glo; 72 h. The method, then:
as §3, §4

Another assay deals with MOLM-14. Put plainly: CellTiter-Glo cell viability assay (example 57). It counts as cell-based. Particulars: Homo sapiens; MOLM-14 (Leukemia); Cell Titer-Glo; 72 h. On the procedure: as §3, §4
Another assay relates to U937. Put plainly: CellTiter-Glo cell viability assay (example 57). It counts as cell-based. Conditions: Homo sapiens, U-937; U937 (Leukemia); Cell Titer-Glo; 72 h. The method, then:
as §3, §4

The next assay deals with HepG2. Put plainly: CellTiter-Glo cell viability assay (example 57). It counts as cell-based. Conditions: Homo sapiens; HepG2 (Liver); Cell Titer-Glo; 72 h. The method, then:
as §3, §4

A further assay deals with HL60. Put plainly: CellTiter-Glo cell viability assay (example 57). Conditions: Homo sapiens, HL-60; HL60 (Leukemia); Cell Titer-Glo; 72 h. It counts as cell-based. On the procedure: as §3, §4
A further assay concerns SkBr3. Put plainly: CellTiter-Glo cell viability assay (example 57). It counts as cell-based. Conditions: Homo sapiens, SK-BR-3; SkBr3 (Breast); Cell Titer-Glo; 72 h. On the procedure: as §3, §4
In another assay the test system is SKM-1. Put plainly: CellTiter-Glo cell viability assay (example 57). Type of assay: cell-based. Conditions: Homo sapiens; SKM-1 (Leukemia); Cell Titer-Glo; 72 h. On the procedure:
as §3, §4

In another assay the test system is KG-1. Put plainly: CellTiter-Glo cell viability assay (example 57). Conditions: Homo sapiens; KG-1 (Leukemia); Cell Titer-Glo; 72 h. It counts as cell-based. On the procedure:
as §3, §4

The subject of a further assay is LNCaP. Nature of the assay: CellTiter-Glo cell viability assay (example 57). It counts as cell-based. Particulars: Homo sapiens; LNCaP (Prostate); Cell Titer-Glo; 72 h. The method, then:
as §3, §4

Another assay relates to B16F10. Put plainly: CellTiter-Glo cell viability assay (example 57). Type of assay: cell-based, human. Conditions: Mus musculus, B16-F10; B16F10 (Melanoma); Cell Titer-Glo; 72 h.

`CCN(CCO)CCCC(C)Nc1ccnc2cc(Cl)ccc12` (stereo not drawn) [HCQ, hydroxychloroquine]: the EC50 in the assay with HT29 amounted to 20 µM; in the assay with U87-MG it was 55 µM; with BxPC-3, 53 µM; in the assay with Capan-1, 41 µM; in the assay with MIA PaCa-2, 47 µM; in the assay on Capan-2 it was 47 µM. The half-maximal effective concentration (EC50) with Panc-1 turned out to be 57 µM; in the assay on Kasumi-1, 20 µM; in the assay on NB4, 57 µM; in the assay with MOLM-14, 50 µM; with U937, 60 µM; with HepG2, 20 µM. Moreover, the EC50 in the assay with HL60 turned out to be 40 µM; in the assay with SkBr3, 20 µM; in the assay on SKM-1, 70 µM; with KG-1, 60 µM; with LNCaP, 25 µM; in the assay with B16F10, 20 µM.

The term EC50 denotes the concentration needed to bring the measured effect to its halfway point. A high value points to weaker potency.
